For three substances, IC50 results are on record in paper PMC3321071 (Bioorganic & medicinal chemistry letters, 2012).

The test system of the experiment is gp41-mediated cell–cell fusion. Put plainly: cell–cell fusion. The settings on record: read-out: IC50 in CCF assay. In kind it is cell-based, HIV-1.
Consider H2N-Trp-[Trp]-Leu-OH, for which the IC50 was determined as 5 µM. Regarding H2N-TyrMe-[Trp]-Trp-OH, the IC50 lay within 6 to 8 µM. With H2N-Asn-[Trp]-Trp-OH, the IC50 was 6 to 8 µM.

Usually IC50 stands for the concentration that inhibits the measured activity by half.
